Entries after “also recorded” stand apart in the source; their conditions may differ.
Legend:
[1] = tested on: human breast cancer and prostate cancer tissues; test: Ex vivo tissue assay; assay type: cell-based; conditions: breast (ER-positive and -negative) and prostate cancer tissue
Description: Ex vivo tissue assay. The usage of human breast cancer and prostate cancer tissues was approved by the Indiana University Institutional Review Board. Two human breast cancer tissues (˜1 g each; estrogen receptor-positive and -negative) and prostate cancer tissue (˜1 g), received from Simon Cancer Center Tissue Procurement Core, were manually fragmented with a scalpel into small pieces (0.5˜0.8 mm in length). These pieces were grown in DMEM with 10% fetal bovine serum and antibiotics for a day. iTS cell-derived conditioned medium was then added for three additional days, and a change in the fragment size was determined. BML284 (10 μM) or β-catenin (40 ng/μ1) was applied to tissue fragments and CM was prepared as described above.

EO771 cells [2] = test: In vivo extravasation assay; set-up: species or system mouse; conditions: EO771 cells via tail vein
From the text: (§1) Animal models. The experimental procedures using animals were approved by the Indiana University Animal Care and Use Committee and were complied with the Guiding Principles in the Care and Use of Animals endorsed by the American Physiological Society. Mice were housed five per cage and provided with mouse chow and water ad libitum. In the mouse model of mammary tumors, C57BL/6 female mice (˜8 weeks, Envigo RMS, Inc., Indianapolis, IN, USA) were randomly assigned into five groups (14 mice per group). The placebo groups received cells transfected with a negative control vector, and the negative control group received cells transfected with β-catenin overexpression vector. The three treatment groups received β-catenin overexpressing iTS CM, BML-treated cells, and BML-treated iTS CM. Each group received a subcutaneous injection of EO771 cells (3.0×10^5 cells in 50 μl PBS) to the mammary fat pad. For tibial osteolysis, C57BL/6 female mice (8 mice per group) received an intra-tibial injection of EO771 cells (2.5×10^5 cells in 20 μl PBS) to the right tibia. The treatment group received iTS cell-derived CM as an injection into the intraperitoneal cavity. The animals were sacrificed on day 18, and the weight of each tumor was measured. To evaluate the effects of CMs for tumor invasion, an in vivo extravasation assay was conducted. […]

EO771 cells [3] = test: Mouse model of mammary tumors; assay type: in vivo; conditions: EO771 cells in mammary fat pad
From the text: as §1

4T1.2 cells [4] = test: MTT-based viability; assay type: cell-based, mouse; conditions: 1 to 5 μM OAC2
4T1.2 cells [5] = test: Mouse model of a mammary tumor; assay type: in vivo; conditions: BALB/c mice, daily intraperitoneal injection of 10 mg/kg OAC2
4T1.2 cells [6] = test: Western blot analysis; assay type: cell-based, mouse; conditions: 4T1.2 cells, OAC2 treatment
Description: Western blot analysis. Cultured cells were lysed in a radio-immunoprecipitation assay (RIPA) buffer and proteins were fractionated by 10-15% SDS gels and electro-transferred to polyvinylidene difluoride (PVDF) transfer membranes (Millipore, Billerica, MA, USA). The membrane was incubated overnight with primary antibodies and then with secondary antibodies conjugated with horseradish peroxidase (Cell Signaling, Danvers, MA, USA). Antibodies against c-Myc, Oct4, Sox2, Klf4, Lrp5, Runx2, Snail, TGFβ, Eno1, Eef2, vinculin (Cell Signaling, Danvers, MA, USA), MMP9, NFATc1, cathepsin K (Santa Cruz, Dallas, TX, USA), TRAIL (Novus, Centennial, CO, USA), p53 (Invitrogen, Carlsbad, CA, USA), Hsp90ab1 (Abcam, Cambridge, UK), Kdm3a (Thermo-Fisher Scientific, Waltham, MA, USA) and β-actin as a control (Sigma, St. Louis, MO, USA) were employed. The level of proteins was determined using a SUPERSIGNAL™ west femto maximum sensitivity substrate (Thermo-Fisher Scientific, Waltham, MA, USA), and a luminescent image analyzer (LAS-3000, Fuji Film, Tokyo, Japan) was used to quantify signal intensities.

Compound | size of cancer tissue fragments [1] | number of tumor cells in the lung (EO771 cells [2]) | tumor weight (EO771 cells [3]) | MTT-based viability / proliferation of tumor cells, direct application (4T1.2 cells [4]) | size of mammary tumors / progression of tumors, direct administration (4T1.2 cells [5]) | Oct4 level (4T1.2 cells [6])
COc1cccc(-c2cc(NCc3ccc4c(c3)OCO4)nc(N)n2)c1 [BML284] | modestly increased | Increase | Increase | – | – | –
O=C(Nc1ccc2[nH]ccc2c1)c1ccccc1 [OAC2] | – | – | – | did not alter; also recorded: No detectable change | did not alter; also recorded: No detectable change | Elevation
